{"source": "ChEMBL document CHEMBL1201862", "about": "“PubChem BioAssay data set” (2004)", "key": {"[1]": {"assay": "Counterscreen for […] of the human trace amine associated receptor 1 (TAAR1): Fluorescence-based cell-based high throughput dose response assay to identify nonselective Ga16 agonists.", "assay_type": "functional"}, "[2]": {"assay": "Counterscreen for antagonists of the human trace amine associated receptor 1 (hTAAR1): Fluorescence-based cell-based high throughput dose response assay to identify nonselective Ga16 antagonists.", "assay_type": "functional"}, "[3]": {"target": "T1, Trace amine-associated receptor 1 (Homo sapiens, UniProt Q96RJ0)", "T1 sequence (Q96RJ0 whole entry)": "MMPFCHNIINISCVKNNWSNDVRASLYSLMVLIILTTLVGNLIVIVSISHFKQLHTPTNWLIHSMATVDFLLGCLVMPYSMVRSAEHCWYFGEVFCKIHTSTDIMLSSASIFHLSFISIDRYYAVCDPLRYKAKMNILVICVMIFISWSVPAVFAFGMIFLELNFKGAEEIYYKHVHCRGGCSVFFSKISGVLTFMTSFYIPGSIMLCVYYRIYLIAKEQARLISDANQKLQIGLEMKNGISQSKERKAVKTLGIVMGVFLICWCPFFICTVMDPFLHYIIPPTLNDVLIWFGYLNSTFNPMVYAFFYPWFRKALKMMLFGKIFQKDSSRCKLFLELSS", "assay": "Counterscreen for antagonists of the human trace amine associated receptor 1 (hTAAR1): Fluorescence-based cell-based high throughput dose response assay to identify TAAR1 Agonists.", "assay_type": "functional"}, "[4]": {"target": "T1, Trace amine-associated receptor 1", "assay": "Fluorescence-based cell-based high throughput dose response assay to identify antagonists of the human trace amine associated receptor 1 (TAAR1).", "assay_type": "functional"}, "[5]": {"assay": "T. cruzi growth inhibition in host cells, dose response, cell-based, plate reader, dry powder, set 2 (AID 652275)", "assay_type": "functional"}, "[6]": {"target": "T2, DNA repair protein RAD52 homolog (Homo sapiens, UniProt P43351)", "T2 sequence (P43351 whole entry)": "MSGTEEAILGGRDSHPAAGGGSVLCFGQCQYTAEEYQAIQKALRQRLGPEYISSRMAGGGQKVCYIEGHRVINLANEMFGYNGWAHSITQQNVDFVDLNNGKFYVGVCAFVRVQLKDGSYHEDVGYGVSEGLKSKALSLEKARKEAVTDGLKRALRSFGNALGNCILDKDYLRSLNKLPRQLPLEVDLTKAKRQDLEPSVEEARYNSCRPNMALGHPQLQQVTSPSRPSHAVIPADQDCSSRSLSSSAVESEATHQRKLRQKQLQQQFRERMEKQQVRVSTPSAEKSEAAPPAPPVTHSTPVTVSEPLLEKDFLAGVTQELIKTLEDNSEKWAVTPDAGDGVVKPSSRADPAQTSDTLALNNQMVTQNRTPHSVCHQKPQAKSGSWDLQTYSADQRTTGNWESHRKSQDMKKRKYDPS", "assay_type": "functional, biochemical"}, "[7]": {"assay": "HepG2 cell cytotoxicity, dose response, cytotoxicity control, ATP luminescence, cherry-pick, activator set 2 (AID 1053143)", "assay_type": "functional, cell-based"}, "[8]": {"assay": "ADAM10 protease inhibitors, dose response, selectivity assay for ADAM17 exosite inhibitor project, biochemical, FRET peptide substrate, recombinant human ADAM10 (AID 743259);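 note: ADAM10 enzyme cleaving a FRET peptide substrate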"}, "[9]": {"target": "Disintegrin and metalloproteinase domain-containing protein 17 (Homo sapiens, UniProt P78536)", "sequence (P78536 whole entry, the tested form may be a part)": "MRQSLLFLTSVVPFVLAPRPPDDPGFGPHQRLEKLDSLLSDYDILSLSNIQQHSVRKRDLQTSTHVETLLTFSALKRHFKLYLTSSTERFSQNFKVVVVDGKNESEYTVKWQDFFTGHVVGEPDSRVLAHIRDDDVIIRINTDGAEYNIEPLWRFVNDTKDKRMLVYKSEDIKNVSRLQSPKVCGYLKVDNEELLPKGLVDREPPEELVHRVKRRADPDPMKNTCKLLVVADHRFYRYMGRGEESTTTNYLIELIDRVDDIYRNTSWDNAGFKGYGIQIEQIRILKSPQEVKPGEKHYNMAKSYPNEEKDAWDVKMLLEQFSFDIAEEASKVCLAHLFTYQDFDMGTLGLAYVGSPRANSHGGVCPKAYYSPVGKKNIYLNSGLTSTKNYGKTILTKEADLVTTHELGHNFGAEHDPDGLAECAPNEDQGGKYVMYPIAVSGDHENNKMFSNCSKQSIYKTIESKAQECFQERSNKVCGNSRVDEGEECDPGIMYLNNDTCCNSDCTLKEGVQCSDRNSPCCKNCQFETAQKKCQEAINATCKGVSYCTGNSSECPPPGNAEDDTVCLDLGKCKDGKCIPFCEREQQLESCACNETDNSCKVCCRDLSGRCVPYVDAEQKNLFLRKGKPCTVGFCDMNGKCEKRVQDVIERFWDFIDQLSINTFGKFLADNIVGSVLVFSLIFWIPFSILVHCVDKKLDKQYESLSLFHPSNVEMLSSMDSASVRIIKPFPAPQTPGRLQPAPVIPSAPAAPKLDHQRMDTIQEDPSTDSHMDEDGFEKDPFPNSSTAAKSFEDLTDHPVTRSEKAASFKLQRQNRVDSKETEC", "assay": "exosite inhibitors of ADAM17, dose response, biochemical (AID 743260)"}, "[10]": {"target": "T3, Beta-lactamase (Pseudomonas aeruginosa, UniProt Q79MP6)", "T3 sequence (Q79MP6 whole entry)": "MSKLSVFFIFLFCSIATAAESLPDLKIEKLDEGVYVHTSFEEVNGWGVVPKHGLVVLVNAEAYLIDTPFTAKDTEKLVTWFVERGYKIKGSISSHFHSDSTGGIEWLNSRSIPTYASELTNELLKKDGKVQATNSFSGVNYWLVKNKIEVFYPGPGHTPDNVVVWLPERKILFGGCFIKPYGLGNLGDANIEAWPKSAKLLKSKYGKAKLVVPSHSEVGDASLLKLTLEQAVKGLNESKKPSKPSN", "assay": "[…] counterscreen for selective VIM-2 inhibitors: dose response biochemical high throughput screening assay to identify inhibitors of IMP-1 metallo-beta-lactamase."}, "[11]": {"target": "T3, Beta-lactamase", "assay": "IMP-1 metallo-beta-lactamase inhibitors, dose response, selectivity assay for VIM-2 inhibitor project, biochemical, epi-absorbance (AID 1920)"}, "[12]": {"target": "Beta-lactamase (Salmonella choleraesuis (strain SC-B67), UniProt Q5J463)", "sequence (Q5J463 whole entry)": "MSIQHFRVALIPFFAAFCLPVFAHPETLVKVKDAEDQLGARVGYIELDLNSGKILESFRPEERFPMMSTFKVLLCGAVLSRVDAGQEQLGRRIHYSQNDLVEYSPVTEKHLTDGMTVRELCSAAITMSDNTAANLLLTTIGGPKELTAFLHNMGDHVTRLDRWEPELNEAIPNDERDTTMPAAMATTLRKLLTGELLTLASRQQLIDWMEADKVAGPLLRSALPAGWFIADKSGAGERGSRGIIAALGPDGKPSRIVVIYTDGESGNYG", "assay": "Epi-absorbance-based counterscreen for selective VIM-2 inhibitors: dose response biochemical high throughput screening assay to identify inhibitors of TEM-1 serine-beta-lactamase."}, "[13]": {"target": "Tyrosine-protein phosphatase non-receptor type 5 (Homo sapiens, UniProt P54829)", "sequence (P54829 whole entry)": "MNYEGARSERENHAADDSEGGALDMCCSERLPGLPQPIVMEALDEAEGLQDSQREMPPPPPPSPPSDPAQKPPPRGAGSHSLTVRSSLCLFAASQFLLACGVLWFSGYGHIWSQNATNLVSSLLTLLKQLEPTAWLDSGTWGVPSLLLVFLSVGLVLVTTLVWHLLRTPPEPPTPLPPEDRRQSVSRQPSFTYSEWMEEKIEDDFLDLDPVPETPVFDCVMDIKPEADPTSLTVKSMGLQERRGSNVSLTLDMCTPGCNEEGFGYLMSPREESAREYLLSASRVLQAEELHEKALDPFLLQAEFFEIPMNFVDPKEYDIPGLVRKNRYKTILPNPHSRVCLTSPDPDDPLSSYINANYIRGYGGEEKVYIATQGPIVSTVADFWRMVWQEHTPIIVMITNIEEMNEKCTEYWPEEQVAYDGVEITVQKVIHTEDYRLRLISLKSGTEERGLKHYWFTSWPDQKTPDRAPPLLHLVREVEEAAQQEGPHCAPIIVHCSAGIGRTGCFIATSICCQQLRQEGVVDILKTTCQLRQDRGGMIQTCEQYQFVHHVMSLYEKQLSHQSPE", "assay": "STEP phosphatase inhibitors, confirmation, biochemical, fluorescence intensity, uHTS hits (AID 602372)", "assay_type": "functional", "conditions": "read-out: IC50_Mean"}, "[14]": {"target": "T4, Low molecular weight phosphotyrosine protein phosphatase (Homo sapiens, UniProt P24666)", "T4 sequence (P24666 whole entry)": "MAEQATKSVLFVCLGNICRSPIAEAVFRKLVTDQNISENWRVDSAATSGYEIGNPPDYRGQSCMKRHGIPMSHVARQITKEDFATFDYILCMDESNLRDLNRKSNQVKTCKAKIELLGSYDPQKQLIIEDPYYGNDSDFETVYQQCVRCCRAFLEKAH", "assay_type": "functional", "conditions": "read-out: IC50_Mean"}, "[15]": {"target": "T5, Tyrosine-protein phosphatase non-receptor type 22 (Homo sapiens, UniProt Q9Y2R2)", "T5 sequence (Q9Y2R2 whole entry)": "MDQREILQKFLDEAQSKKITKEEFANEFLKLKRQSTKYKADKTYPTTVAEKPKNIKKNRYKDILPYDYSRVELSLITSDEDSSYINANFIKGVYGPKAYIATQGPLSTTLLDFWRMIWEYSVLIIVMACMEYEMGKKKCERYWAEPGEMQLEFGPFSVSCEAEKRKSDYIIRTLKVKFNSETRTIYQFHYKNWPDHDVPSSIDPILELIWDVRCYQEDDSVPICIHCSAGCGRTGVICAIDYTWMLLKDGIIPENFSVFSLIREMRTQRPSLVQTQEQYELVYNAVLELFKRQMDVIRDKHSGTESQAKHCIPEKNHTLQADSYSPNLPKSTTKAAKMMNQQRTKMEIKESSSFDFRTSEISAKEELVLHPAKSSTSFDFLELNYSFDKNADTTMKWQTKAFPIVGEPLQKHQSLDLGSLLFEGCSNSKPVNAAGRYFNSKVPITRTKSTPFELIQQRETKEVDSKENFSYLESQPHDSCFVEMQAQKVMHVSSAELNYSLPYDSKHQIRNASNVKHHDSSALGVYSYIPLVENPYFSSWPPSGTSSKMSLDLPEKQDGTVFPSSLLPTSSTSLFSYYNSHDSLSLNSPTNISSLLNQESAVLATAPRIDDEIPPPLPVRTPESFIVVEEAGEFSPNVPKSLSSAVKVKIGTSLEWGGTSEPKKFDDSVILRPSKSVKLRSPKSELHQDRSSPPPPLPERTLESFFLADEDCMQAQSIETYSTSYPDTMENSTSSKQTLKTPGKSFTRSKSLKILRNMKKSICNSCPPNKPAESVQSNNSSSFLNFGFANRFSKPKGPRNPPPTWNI", "assay": "PTPN22 phosphatase inhibition, dose response, selectivity assay for STEP inhibitor project, biochemical (AID 624241)", "assay_type": "functional"}, "[16]": {"target": "Tyrosine-protein phosphatase non-receptor type 11 (Homo sapiens, UniProt Q06124)", "sequence (Q06124 whole entry)": "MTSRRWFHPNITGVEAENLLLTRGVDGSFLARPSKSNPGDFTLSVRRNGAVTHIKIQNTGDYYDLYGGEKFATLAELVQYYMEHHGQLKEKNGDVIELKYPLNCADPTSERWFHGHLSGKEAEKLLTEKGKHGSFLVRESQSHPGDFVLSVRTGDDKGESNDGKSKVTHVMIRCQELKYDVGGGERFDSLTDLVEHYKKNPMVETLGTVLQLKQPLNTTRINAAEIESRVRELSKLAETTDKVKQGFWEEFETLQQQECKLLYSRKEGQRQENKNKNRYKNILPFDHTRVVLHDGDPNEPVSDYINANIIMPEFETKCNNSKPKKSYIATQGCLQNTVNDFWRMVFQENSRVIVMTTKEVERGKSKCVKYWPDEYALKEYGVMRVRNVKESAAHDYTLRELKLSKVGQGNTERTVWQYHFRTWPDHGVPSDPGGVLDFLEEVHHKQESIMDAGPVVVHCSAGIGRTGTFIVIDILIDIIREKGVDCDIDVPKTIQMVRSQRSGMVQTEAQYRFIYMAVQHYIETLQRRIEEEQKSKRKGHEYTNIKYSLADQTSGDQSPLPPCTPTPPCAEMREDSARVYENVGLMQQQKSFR", "assay": "SHP2 phosphatase inhibition, dose response, selectivity assay for STEP inhibitor project, biochemical (AID 602367)", "assay_type": "functional", "conditions": "read-out: IC50_Mean"}, "[17]": {"target": "Dual specificity protein phosphatase 3 (Homo sapiens, UniProt P51452)", "sequence (P51452 whole entry)": "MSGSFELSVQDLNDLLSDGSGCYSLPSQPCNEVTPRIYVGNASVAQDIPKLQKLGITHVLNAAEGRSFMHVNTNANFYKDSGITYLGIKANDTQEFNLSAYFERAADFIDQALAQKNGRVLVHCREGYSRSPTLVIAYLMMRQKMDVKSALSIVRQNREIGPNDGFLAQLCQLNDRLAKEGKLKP", "assay": "VHR phosphatase inhibition, dose response, selectivity assay for STEP inhibitor project, biochemical (AID 602374)", "assay_type": "functional", "conditions": "read-out: IC50_Mean"}, "[18]": {"target": "T4, Low molecular weight phosphotyrosine protein phosphatase", "assay_type": "functional", "conditions": "read-out: IC50_Mean", "remark": "listed apart in the source"}}, "note": "Activity calls are given as the source filed them.", "data": [{"smiles": "CN1CCN(c2ncnc3c2c(-c2ccccc2)cn3-c2ccc(F)cc2)CC1", "values": [{"measurement": "EC50", "setting": "[1]", "result": "> 29.9 µM (inactive)"}, {"measurement": "IC50", "setting": "[2]", "result": "> 29.9 µM (inactive)"}, {"measurement": "EC50", "setting": "[3]", "result": "10 µM (inactive)"}, {"measurement": "IC50", "setting": "[4]", "result": "3.17 µM (active)"}]}, {"smiles": "CN(C)CC#Cc1cccc(-c2nc(C(=O)NCc3ccc4c(c3)OCO4)cc3c2[C@H](CCO)N([S+]([O-])C(C)(C)C)C3)c1", "note": "(stereo partly drawn)", "values": [{"measurement": "AC50", "setting": "[5]", "result": "1.38 µM (active)"}]}, {"smiles": "CCN1CCN(c2cc(C)c3cc(NC(=O)c4cc(OC)cc(OC)c4)ccc3n2)CC1", "values": [{"measurement": "AC50", "setting": "[6]", "result": "11.2 µM (active)"}, {"measurement": "AC50", "setting": "[7]", "result": "17.1 µM (active)"}]}, {"smiles": "CCSc1nsc(NC(=O)Nc2cccc(OC)c2)n1", "values": [{"measurement": "IC50", "setting": "[8]", "result": "> 69.5 µM (inactive)"}, {"measurement": "IC50", "setting": "[9]", "result": "> 69.5 µM (inactive)"}]}, {"smiles": "COCC(C)NC(=O)c1cc2cccc([N+](=O)[O-])c2[nH]1", "note": "(stereo not drawn)", "values": [{"measurement": "IC50", "setting": "[10]", "result": "> 59.6 µM (inactive)"}, {"measurement": "IC50", "setting": "[11]", "result": "> 59.6 µM (inactive)"}, {"measurement": "IC50", "setting": "[12]", "result": "> 59.6 µM (inactive)"}]}, {"smiles": "C/C(=N\\NC(=O)c1ccccc1O)c1ccc(NC(=O)Cc2ccccc2)cc1", "values": [{"measurement": "IC50", "setting": "[13]", "result": "12.8 µM (active)"}, {"measurement": "IC50", "setting": "[14]", "result": "15.9 µM (active)"}, {"measurement": "IC50", "setting": "[15]", "result": "> 100 µM (inactive)"}, {"measurement": "IC50", "setting": "[16]", "result": "2.01 µM (active)"}, {"measurement": "IC50", "setting": "[17]", "result": "2.38 µM (active)"}, {"measurement": "IC50", "setting": "[18]", "result": "14.2 µM (active)"}]}]}
